Laboratory results published in US10849847B2, “Compositions and methods for treating rosacea and acne” (Foamix Pharmaceuticals Ltd., priority 2016, dated 2020).
Read-outs that look alike come from different tables or passages of the source.

What was measured:
[1] = for Compatibility with Minocycline HCl: tested after the storage for up to 3 weeks; for Compatibility with Minocycline HCl (observations): on dissolution / storage
Description: The ratio between MCH and the tested excipient is detailed below. Visual inspection was the major criterion for indication of compatibility. The color of intact MCH suspension is pale yellow; and any change of color (e.g., to dark orange, red, green, brown and black) indicates oxidation or degradation.
Other than hydrogenated castor oil, beeswax, paraffin and hard fat, the aforesaid items listed are oily emollients.
Additives were tested for compatibility with MCH. […] In parallel, antioxidants were added to the MCH suspensions comprising water.

[2] = Doxycycline Hyclate Compatibility Test; assay type: physicochemical
Description: (§1) A similar compatibility study was conducted for Doxycycline Hyclate and Doxycycline Monohydrate.
(§2) Different compositions of hydrophilic and hydrophobic solvents containing Doxycycline Hyclate (Set I and Set II) and Doxycycline Monohydrate (Set III) were prepared by weighing the antibiotic in a glass vial and shaking overnight with each solvent investigated.
Group II included Doxycycline Hyclate mixed with various vehicles with addition of antioxidants like alpha tocopherol, butylated hydroxytoluene (BHT), and ascorbic acid.

[3] = Doxycycline Monohydrate Compatibility Test; assay type: physicochemical
Description: as §1, §2
A similar compatibility test was performed on another form of Doxycycline—Doxycycline Monohydrate.

[4] = Phase I PK study in adults with acne: topical minocycline foam 4% for 21 days vs single oral dose of minocycline (FX2014-03); assay type: in vivo, human; details: Period 1, single oral dose ~1 mg/kg minocycline, Day 1-5; for AUC(0-inf) / AUC / Cmax / half-life / Tmax: both sexes, human, plasma, po, 1 mg/kg
Description: Each application was approximately 4 g (a maximal-use dose). […] On the day of initial dosing (Day 1), subjects checked into the clinic where they were confined until 1 hour after study drug was administered. Predose clinical assessments were performed and a 1 mL blood sample for PK analysis was obtained before study drug was administered.
SUBJECTS: Adults were eligible for this study if they were 18 to 35 years of age; children were eligible for the pediatric study if they were 9 to 16 years and 11 months of age and in good health, as judged on the basis of their medical history and the screening procedures. They were required to have moderate-to-severe facial acne vulgaris as well as acne affecting at least two additional regions of the body (neck, upper chest, upper back, or arms).
On days 6, 9, 10, 11, and 16, blood samples were obtained at approximately 30 minutes before the scheduled application. […] After the final application, subjects were asked to return for additional blood sampling on days 23, 24, and 25.
BIOANALYTICAL METHODS: Blood samples were collected and centrifuged, and the separated plasma was stored at approximately −70° C.
Actual sample collection times were used for the purpose of calculating pharmacokinetic parameters. […] Geometric mean was calculated for Cmax, AUC0-tldc, AUC0-inf, and AUC0-tau, and the harmonic mean was calculated for t1/2. Analysis of multiple-dose accumulation, determination of steady state, and other pertinent comparisons of pharmacokinetic parameters across or between doses were performed using the appropriate statistical methods. […] The CIs were expressed as a percentage relative to the LSM of the reference treatment.

[5] = oily emollients, MCH:excipient 1:250, 25° C. and 40° C., maximum sixty days
[6] = foam adjuvants, MCH:excipient 1:50
[7] = tested after the storage for up to 3 weeks
[8] = surfactants solubilized in mineral oil, MCH:excipient 1:50
[9] = hydrophilic solvents, MCH:excipient 1:250, 25° C. and 40° C., maximum sixty days
[10] = mixtures stored at 25° C., 40° C. and 50° C. for two weeks

BHA/BHT
Effect of antioxidant on MCH degradation [1]: did not prevent MCH degradation

CCCCCCCCCCCCCC(=O)OC(C)C [Isopropyl myristate]
Compatibility with MCH [1, 5]: compatible

CC(C)CCCCCCCCCCCCCCCO [Isostearyl alcohol]
Compatibility with MCH [1, 6]: compatible

CCCOC(=O)c1cc(O)c(O)c(O)c1 [propyl gallate]
Effect of antioxidant on MCH degradation [1]: did not prevent MCH degradation

Sorbitan Monolaurate
Compatibility with Minocycline HCl [1]: No | Compatibility with Doxycycline Hyclate [2, 7]: No | Compatibility with Doxycycline Monohydrate [3, 7]: No

CC(C)OC(=O)CCCCC(=O)OC(C)C [diisopropyl adipate]
Compatibility with MCH [1, 5]: compatible | Compatibility with Minocycline HCl [1]: Yes | Compatibility with Doxycycline Hyclate [2, 7]: Yes | Compatibility with Doxycycline Monohydrate [3, 7]: No

CCCCCCCCCCCCCCCC(=O)O [Palmitic acid]
Compatibility with MCH [1, 6]: compatible

CCCCCCCCCCCCCCCCCC(=O)OCC(O)CO (centres unmarked) [Glyceryl monostearate]
Compatibility with MCH [1, 8]: incompatible

CC1CCC(C(C)C)C(O)C1 (centres unmarked) [Menthol]
Compatibility with MCH ([1]; additives, MCH:excipient 1:50): compatible

Cyclomethicone
Compatibility with MCH [1, 5]: compatible

Sorbitan Monostearate
Compatibility with Minocycline HCl [1]: Yes | Compatibility with Doxycycline Hyclate [2, 7]: Yes

SPAN 80
Compatibility with MCH [1, 8]: incompatible

SPAN 60
Compatibility with MCH [1, 8]: incompatible

CCCCCCCCCCCCCCCCCC(=O)O [Stearic acid]
Compatibility with MCH [1, 6]: compatible

Sorbitan sesquistearate
Compatibility with MCH [1, 8]: incompatible

CC(O)CO (centres unmarked) [Propylene glycol]
Compatibility with MCH [1, 9]: incompatible | Compatibility with Minocycline HCl [1]: No | Compatibility with Doxycycline Hyclate [2, 7]: No | Compatibility with Doxycycline Monohydrate [3, 7]: No

OCC(O)CO [Glycerin]
Compatibility with MCH [1, 9]: incompatible | Compatibility with Minocycline HCl (observations) [1]: intensive oxidation | Compatibility with Minocycline HCl [1]: No | Compatibility with Doxycycline Hyclate [2, 7]: No | Compatibility with Doxycycline Monohydrate [3, 7]: No

CCCCCCCCCCCCCCCCO [Cetyl alcohol]
Compatibility with MCH [1, 6]: compatible

CCCCCCCCCCCCCCCCCCCCCCO [Behenyl alcohol]
Compatibility with MCH [1, 6]: compatible

CN(C)c1ccc(O)c2c1C[C@H]1C[C@H]3[C@H](N(C)C)C(O)=C(C(N)=O)C(=O)[C@@]3(O)C(O)=C1C2=O [Solodyn]
kel, Mean [4]: 0.044 h⁻¹ | kel, Median [4]: 0.04 h⁻¹ | AUC(0-inf) ([4]; read-out: AUC0-inf, Geometric Mean): 15100 ng·h/mL | AUC(0-inf) ([4]; read-out: AUC0-inf, Mean): 15500 ng·h/mL | AUC(0-inf) ([4]; read-out: AUC0-inf, Median): 15600 ng·h/mL | AUC ([4]; read-out: AUC0-tldc, Geometric Mean): 14800 ng·h/mL | AUC ([4]; read-out: AUC0-tldc, Mean): 15200 ng·h/mL | AUC ([4]; read-out: AUC0-tldc, Median): 15400 ng·h/mL | Cmax ([4]; read-out: Cmax, Geometric Mean): 850 ng/mL | Cmax ([4]; read-out: Cmax, Mean): 873 ng/mL | Cmax ([4]; read-out: Cmax, Median): 801 ng/mL | half-life ([4]; read-out: T1/2, Harmonic Mean (converted)): 15.8 h | half-life ([4]; read-out: T1/2, Mean (converted)): 16 h | half-life ([4]; read-out: T1/2, Median (converted)): 15.9 h | Tmax ([4]; read-out: Tmax, Mean): 2.7 h | Tmax ([4]; read-out: Tmax, Median): 3 h

CCCCCCCCCCCCCCO [Myristyl alcohol]
Compatibility with MCH [1, 6]: compatible | Compatibility with Minocycline HCl [1]: Yes | Compatibility with Doxycycline Hyclate [2, 7]: Yes

SPAN 40
Compatibility with MCH [1, 8]: incompatible

CCCCCCCC/C=C\CCCCCCCC(=O)O [Oleic acid]
Compatibility with MCH [1, 6]: compatible

CC(C)CCCCCCCCCCCCCCC(=O)O [Isostearic acid]
Compatibility with MCH [1, 6]: not compatible | Compatibility with Minocycline HCl [1]: No | Compatibility with Doxycycline Hyclate [2, 7]: Yes

CCCCCCCCCCC(CO)CCCCCCCC (centres unmarked) [Octyl dodecanol]
Compatibility with MCH [1, 5]: compatible | Compatibility with Minocycline HCl (observations) [1]: full compatibility | Compatibility with Minocycline HCl [1]: Yes | Compatibility with Doxycycline Hyclate [2, 10]: incompatibility | Compatibility with Doxycycline Hyclate [2, 7]: No | Compatibility with Doxycycline Monohydrate [3, 10]: incompatibility | Compatibility with Doxycycline Monohydrate [3, 7]: No

CCCCCCCC/C=C\CCCCCCCCO [Oleyl alcohol]
Compatibility with MCH [1, 6]: compatible | Compatibility with Minocycline HCl [1]: Yes | Compatibility with Doxycycline Hyclate [2, 7]: Yes

OCCCCO [Butylene Glycol]
Compatibility with MCH [1, 9]: incompatible | Compatibility with Minocycline HCl [1]: No | Compatibility with Doxycycline Hyclate [2, 7]: No | Compatibility with Doxycycline Monohydrate [3, 7]: No

CO[C@H]1CO[C@H]2[C@@H]1OC[C@H]2OC [Dimethyl Isosorbide]
Compatibility with MCH [1, 9]: incompatible | Compatibility with Minocycline HCl [1]: No | Compatibility with Doxycycline Hyclate [2, 7]: No | Compatibility with Doxycycline Monohydrate [3, 7]: No

CCCCCCCCCCCCCCCCCCO [Stearyl alcohol]
Compatibility with MCH [1, 6]: compatible | Compatibility with Minocycline HCl [1]: Yes | Compatibility with Doxycycline Hyclate [2, 7]: Yes

CC(O)CC(C)(C)O (centres unmarked) [Hexylene Glycol]
Compatibility with MCH [1, 9]: incompatible | Compatibility with Minocycline HCl [1]: No | Compatibility with Doxycycline Monohydrate [3, 10]: oxidized | Compatibility with Doxycycline Monohydrate [3, 7]: No

C[Si]1(C)O[Si](C)(C)O[Si](C)(C)O[Si](C)(C)O[Si](C)(C)O1 [Cyclomethicone 5 NF]
Compatibility with Minocycline HCl [1]: Yes | Compatibility with Doxycycline Hyclate [2, 7]: Yes | Compatibility with Doxycycline Monohydrate [3, 7]: Yes

CCOCCOCCO [Diethylene glycol monoethyl ether]
Compatibility with MCH [1, 9]: incompatible

C[S+](C)[O-] [Dimethyl Sulfoxide]
Compatibility with MCH [1, 9]: incompatible
